Source: US20250034207A1, “PEPTIDES AND PEPTIDE CONJUGATES FOR TREATING MENTAL DISORDERS” (Kyoto University, priority 2016, published 2025)
No end group written: not given here.

Tested on: ddY mice
Test: Tail suspension test in mice after oral administration
Assay type: in vivo
Settings: for Activity Rating: rating excellent, good, moderate or low from percent reduction of control immobility, 0.3 mg/kg; for % of SEQ ID NO: 1 activity: reduction of control immobility relative to SEQ ID NO:1, 0.3 mg/kg oral, average where tested more than once; for Immobility time for peptides dosed at 0.3 mg/kg as percent of control immobility time, Example 16: Example 16 (retest)
Description: The tail suspension test is an experimental method used to screen potential antidepressant drugs (Can et al., 2012, J Vis Exp., 59: e3769). In the test as implemented in the Examples, a test substance is orally administered to mice (ddY mice, males, 24˜30 g) and 30 minutes later the mice are suspended by their tails for six minutes. The amount of time that a mouse is immobile (i.e. is not displaying escape behavior) during the six minutes is measured to provide an immobility time. The administration of anti-depressant drugs such as imipramine reduces immobility time. Therefore, if a reduction of immobility time is observed when testing a test substance, it can be concluded that the test substance has anti-depressant properties. Immobility is considered a despair state, and, therefore, a reduction of immobility time also indicates an increase in motivation (i.e., that the test substance has motivation-increasing properties).

Substance | Activity Rating | % of SEQ ID NO: 1 activity | further results
AQQSY (Designed peptide) [SEQ ID NO:5] | Moderate | 26.16% | Immobility time for peptides dosed at 0.3 mg/kg as percent of control immobility time, Example 3 (FIG. 3B) (0.3 mg/kg oral): 86.87% of control immobility time
AQQSYW (Designed peptide) [SEQ ID NO:41] | Low | 5.32% | Immobility time for peptides dosed at 0.3 mg/kg as percent of control immobility time, Example 14 (0.3 mg/kg oral): 97.33% of control immobility time
ESFFLSSTQAQQSY (Designed peptide) [SEQ ID NO:42] | Low | −39.13% | Immobility time for peptides dosed at 0.3 mg/kg as percent of control immobility time, Example 15 (0.3 mg/kg oral): 119.64% of control immobility time
FFLSSTQAQQSYLQ (Designed peptide) [SEQ ID NO:44] | Good | 33.91% | Immobility time for peptides dosed at 0.3 mg/kg as percent of control immobility time, Example 15 (0.3 mg/kg oral): 82.98% of control immobility time; Immobility time compared to control (0.3 mg/kg oral, Example 15 (FIG. 11)): decreased
LSSTQ (Designed peptide) [SEQ ID NO:4] | Good | 36.80% | Immobility time for peptides dosed at 0.3 mg/kg as percent of control immobility time, Example 3 (FIG. 3B) (0.3 mg/kg oral): 81.53% of control immobility time
LSSTQAQQ (Designed peptide) [SEQ ID NO:27] | Good | 46.52% | Immobility time for peptides dosed at 0.3 mg/kg as percent of control immobility time, Example 13 (0.3 mg/kg oral): 76.65% of control immobility time
LSSTQAQQS (Designed peptide) [SEQ ID NO:2] | Moderate | 25.28% | Immobility time for peptides dosed at 0.3 mg/kg as percent of control immobility time, Example 3 (FIG. 3A) (0.3 mg/kg oral): 87.31% of control immobility time
LSSTQAQQSF (Designed peptide) [SEQ ID NO:7] | Excellent | 115.46% | Immobility time for peptides dosed at 0.3 mg/kg as percent of control immobility time, Example 6 (0.3 mg/kg oral): 42.05% of control immobility time
LSSTQAQQSW (Designed peptide) [SEQ ID NO:6] | Excellent | 122.71% | Immobility time for peptides dosed at 0.3 mg/kg as percent of control immobility time, Example 6 (0.3 mg/kg oral): 38.41% of control immobility time
LSSTQAQQSY (Designed peptide) [SEQ ID NO:1] | Excellent | 100% | Immobility time for peptides dosed at 0.3 mg/kg as percent of control immobility time, Example 1 (0.3 mg/kg oral, Example 1): 44.13% of control immobility time; Immobility time for peptides dosed at 0.3 mg/kg as percent of control immobility time, Example 3 (FIG. 3A) (0.3 mg/kg oral): 42.41% of control immobility time; Immobility time for peptides dosed at 0.3 mg/kg as percent of control immobility time, Example 3 (FIG. 3B) (0.3 mg/kg oral): 64.04% of control immobility time
LSSTQAQQSY-NH2 [SEQ ID NO:36, C-terminal amidated peptide conjugate] | Excellent | 89.12% | Immobility time for peptides dosed at 0.3 mg/kg as percent of control immobility time, Example 6 (0.3 mg/kg oral): 55.27% of control immobility time
LSSTQAQQSYLQGF (Designed peptide) [SEQ ID NO:43] | Low | −19.33% | Immobility time for peptides dosed at 0.3 mg/kg as percent of control immobility time, Example 15 (0.3 mg/kg oral): 109.70% of control immobility time
LSSTQAQQSYW (Designed peptide) [SEQ ID NO:37] | Excellent | 97.25% | Immobility time for peptides dosed at 0.3 mg/kg as percent of control immobility time, Example 14 (0.3 mg/kg oral): 39.08% of control immobility time; Immobility time for peptides dosed at 0.3 mg/kg as percent of control immobility time, Example 16 (0.3 mg/kg oral): 58.54% of control immobility time
SSTQAQQS (Designed peptide) [SEQ ID NO:28] | Excellent | 82.07% | Immobility time for peptides dosed at 0.3 mg/kg as percent of control immobility time, Example 13 (0.3 mg/kg oral): 60.34% of control immobility time; Immobility time for peptides dosed at 0.3 mg/kg as percent of control immobility time, Example 16 (0.3 mg/kg oral): 57.29% of control immobility time
SSTQAQQSY (Designed peptide) [SEQ ID NO:3] | Excellent | 64.81% | Immobility time for peptides dosed at 0.3 mg/kg as percent of control immobility time, Example 3 (FIG. 3A) (0.3 mg/kg oral): 67.47% of control immobility time
STQAQQSY (Designed peptide) [SEQ ID NO:29] | Good | 50.93% | Immobility time for peptides dosed at 0.3 mg/kg as percent of control immobility time, Example 13 (0.3 mg/kg oral): 74.44% of control immobility time
WLSSTQ (Designed peptide) [SEQ ID NO:40] | Good | 56.36% | Immobility time for peptides dosed at 0.3 mg/kg as percent of control immobility time, Example 14 (0.3 mg/kg oral): 55.34% of control immobility time; Immobility time for peptides dosed at 0.3 mg/kg as percent of control immobility time, Example 16 (0.3 mg/kg oral): 88.09% of control immobility time
WLSSTQAQQSY (Designed peptide) [SEQ ID NO:38] | Good | 55.25% | Immobility time for peptides dosed at 0.3 mg/kg as percent of control immobility time, Example 14 (0.3 mg/kg oral): 72.27% of control immobility time
WLSSTQAQQSYW (Designed peptide) [SEQ ID NO:39] | Moderate | 18.05% | Immobility time for peptides dosed at 0.3 mg/kg as percent of control immobility time, Example 14 (0.3 mg/kg oral): 90.94% of control immobility time
